Consider two compounds from US7534742B2, “Isoprenoid biosynthesis” (priority 1999, dated 2009).

SMILES strings stand for the structures.

The assay addresses T1, YgbP (Escherichia coli, UniProt Q46893).
T1 construct: made in house; host or cells: E. coli XL1-Blue, plasmid pNCOygbP (vector pNCO113)
Put plainly: Screening of 4-diphosphocytidyl-2C-methyl-D-erythritol synthase by spectrophotometric method (coupled pyrophosphate/NADP+ assay, 340 nm). The format is biochemical, E. coli. Conditions: 37° C. The procedure:
Recombinant 4-diphosphocytidyl-2C-methyl-D-erythritol synthase is tested by a spectrophotometric assay at 340 nm, in which the inorganic pyrophosphate formed from 2-C-methyl-D-erythritol 4-phosphate and CTP is used in a cascade of downstream reactions leading to the reduction of NADP^+. Reactions mixtures contained 50 mM Tris hydrochloride pH 8.0, 200 μM 2C-methyl-D-erythritol 4-phosphate, 200 μM CTP, 5 mM MgCl2, 1 mM DTT, 1 μM glucose 1,6-biphosphate, 500 μM UDP-Glucose, 174 μM NADP^+, 0.125 U of UDP-glucose pyrophosphorylase, 0.16 U of phosphoglucomutase, and 1 U of glucose 6-phosphate deydrogenase, various concentrations of D-erythritol 4-phosphate respectively D-ribitol 5-phosphate as shown in Table 4 and 10 μl of enzyme in a total volume of 1 ml. One unit of enzyme activity is defined as the amount of enzyme catalyzing the conversion of 1 μmol of substrate per min at 37° C.

Setting [1] is: test compound concentration 0.2 mM.
The mark [2] stands for this setting: test compound concentration 0.4 mM.
The mark [3] stands for this setting: test compound concentration 0.8 mM.
Setting [4] is: test compound concentration 1.6 mM.
The mark [5] stands for this setting: test compound concentration 3.2 mM.

T1 sequence (Q46893 2-236): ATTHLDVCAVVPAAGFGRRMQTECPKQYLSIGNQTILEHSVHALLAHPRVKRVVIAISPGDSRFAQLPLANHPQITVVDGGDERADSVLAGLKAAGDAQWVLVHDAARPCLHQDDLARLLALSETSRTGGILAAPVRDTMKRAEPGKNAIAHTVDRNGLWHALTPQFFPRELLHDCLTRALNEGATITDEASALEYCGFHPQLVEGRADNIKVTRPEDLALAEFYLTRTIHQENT

Consider `O=P(O)(O)OC[C@@H](O)[C@@H](O)CO` [D-erythritol 4-phosphate], for which the specific activity is, setting by setting: under setting [1], 15.9 µmol/min/mg; under setting [2], 15.9 µmol/min/mg; under setting [3], 12.9 µmol/min/mg; under setting [4], 5.9 µmol/min/mg; under setting [5], 0 (0%) μmol min^−1 mg^−1. In addition, the “specific activity (% of activity at 0 mM test compound)” value reads like this: under setting [1], 92%; under setting [2], 92%; under setting [3], 75%; under setting [4], 34%; under setting [5], 0 (0%).
As to `O=P(O)(O)OC[C@@H](O)[C@@H](O)[C@@H](O)CO` [D-ribitol 5-phosphate], under setting [1], the specific activity came to 16.5 µmol/min/mg and the “specific activity (% of activity at 0 mM test compound)” value came out at 102%. In addition, under setting [4], the specific activity was 16.9 µmol/min/mg and the “specific activity (% of activity at 0 mM test compound)” value stood at 105%.
